For one series, the system named is Rhodopsin. In words: Rhodopsin mRNA expression (qPCR) in dissociated retinal cell cultures. Type of series: cell-based. To be noted: P5 mouse dissociated retinal cultures, 2 days treatment, vs DMSO and PR1. The source says:
In order to identify compounds that may target Nr2e3 a cheminformatic strategy was used to screen hit compounds previously identified to interact with recombinant Nr2e3 in transfected CHO-S cells in a luciferase-based assay (PubChem Assay IDs: 602229, 624378, 624394, and 651849). As a secondary screen for initial hits, dissociated primary retinal cell cultures were used and assayed Rhodopsin, because it is a well-defined target of Nr2e3 signaling and is expressed at high levels exclusively in rod photoreceptors. Retina were dissociated from postnatal day 5 (P5) mice and cultured them in media containing the small molecules. After treatment for 2 days, the cells were collected for qPCR analysis and quantified Rhodopsin expression. […] This finding was confirmed with an immunofluorescence assay to examine Rhodopsin protein expression in dissociated retinal cultures from P5 mice. […]
RNA from retinas was isolated using TRIzol (Invitrogen) and cDNA was synthesized using the iScript cDNA synthesis kit (Bio-Rad). SSO Fast (Bio-Rad) was used for quantitative real-time PCR. For analysis, values were normalized to Gapdh (ΔCt) and ΔΔCt between DMSO and compound-treated samples was expressed as percent of DMSO treated controls (100*2^ΔΔCt). […]
In general terms: In qPCR the cycle at which signal appears reflects the starting amount.

The test system of another series is Rho^P23H mice. Description: ERG visual function in Rho^P23H mice at P21. Type of series: in vivo, mouse. The note with it: 10 mg/kg PR3, vs littermate DMSO controls. The method, then: FIG. 4A compares scotopic b-wave amplitudes from P21 Rhodopsin^P23H mice treated with 10 mg/kg PR3 or DMSO vehicle (n=4-8, *p<0.05, t-test).
FIG. 4D compares photopic b-wave amplitudes from P21 Rhodopsin^P23H mice treated with 10 mg/kg PR3 or DMSO vehicle (n=4-8, *p<0.05, t-test).
To determine whether photoreceptor degeneration can be prevented, Rho^P23H mice were treated with PR3 or vehicle from P12-P14 until P21, during the period of rod photoreceptor death (FIG. 3A). At P21, visual function was assessed with ERGs and euthanized the mice for histological and qPCR analyses. At P21, control Rho^P23H mice had only 2-3 rows of photoreceptors remaining in their ONL (FIGS. 3B and 3C). Rods were sparse and there were few remaining cones (S Opsin+ and Cone Arrestin+ photoreceptors). Control Rho^P23H mice had minimal scotopic and photopic b-wave amplitudes by ERG analysis (FIGS. 4A, 4B, 4D, and 4E). […] The surviving cones in the PR3-treated retinas were more elongated and healthier than in the DMSO control retinas.
Photoregulin3 was identified by searching previous small molecule screens with SciFinder and PubChem for Nr2e3 interacting molecules. It was initially obtained from ChemDiv and then synthesized and purified in large quantities in the lab after initial screening. For in vivo experiments, mice were injected intraperitoneally with PR3 dissolved in DMSO at 10 mg/kg. […]

Another series deals with photoreceptors. In words: Electron microscopy of photoreceptor morphology in wild type mice after PR3. Type of series: in vivo. To be noted: 10 mg/kg i.p. for 3 consecutive days from P11, EM at P14. The method, then: FIG. 2C compares electron microscope micrographs of retinal sections of wild type mice treated with 10 mg/kg PR3 or DMSO vehicle. Compared to controls, PR3 retinas have arrested inner and outer segment development and less compact heterochromatin in the ONL. Scale bars represent 10 μm (top) and 2 μm (bottom).
Electron microscopy (EM) was used to perform an ultrastructural analysis of photoreceptor morphology after PR3 treatment. Wild type mice were intraperitoneally injected with vehicle or PR3 for 3 consecutive days starting at P11. At P14, 24 h after the third injection, the mice were euthanized and processed their retinas for EM. Photoreceptor outer segments begin to form during the second and third postnatal week; genetic loss-of-function mutations in Nr2e3 lead to an impairment in rod outer segment formation.
Photoregulin3 was identified by searching previous small molecule screens with SciFinder and PubChem for Nr2e3 interacting molecules. It was initially obtained from ChemDiv and then synthesized and purified in large quantities in the lab after initial screening. For in vivo experiments, mice were injected intraperitoneally with PR3 dissolved in DMSO at 10 mg/kg.
Mice were euthanized by CO2, and then perfused with 0.9% saline followed by 4% glutaraldehyde in 0.1 M sodium cacodylate buffer. Eye cups were fixed in 4% glutaraldehyde in 0.1 M sodium cacodylate buffer, washed with 0.1 M sodium cacodylate buffer, and then post-fixed in 2% osmium tetroxide. After fixation, eye cups were washed with water, dehydrated through a graded series of ethanol, incubated in propylene oxide and then epon araidite, polymerized overnight at 60° C., and then sectioned at a thickness of 70 nm. Images were obtained using a JEOL JEM-1230 electron microscope.

Consider `COc1cc2nc(CN3CC=C(c4ccccc4)CC3)nc(O)c2cc1OC` [PR3], for which, in the series on Rhodopsin, the “Rhodopsin mRNA expression” value is “robust reduction in Rhodopsin compared to DMSO and PR1 treatment at all concentrations”. For the same molecule, in the series on Rho^P23H mice, the “photopic b-wave amplitudes (ERG)” value is “significantly elevated” and the “scotopic b-wave amplitudes (ERG)” value is “significantly elevated”. In the series on photoreceptors, the “heterochromatin of rod nuclei (EM)” value is given as “smaller patches of densely packed heterochromatin compared to DMSO retinas”, the “photoreceptor apoptosis / cell death in ONL nuclei (EM)” value was “not due to an increase in cell death” and the “photoreceptor outer segment development (EM)” value is reported as “prevented outer segment development”.

(Values after US20200368234A1, “PHOTORECEPTOR GENE MODULATOR PHOTOREGULIN 3 FOR TREATMENT OF RETINAL DISEASE” (University of Washington, priority 2017, published 2020).)
